# Tested on: 958667-338-R-J2-PDC tumor spheroids viability
# Assay: Anticancer human tumor 958667-338-R-J2-PDC patient-derived colon adenocarcinoma cell line growth inhibition [PI3K]
# Settings: spheroids with HUVEC and MSC; for IC50: curve of first compound; for viability, T/C: stronger effect = lower value
# In short: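 Tumor cells were combined with HUVEC and MSCs into spheroids, then dosed with PI3K-inhibitor combinations over half-log ranges capped near clinical Cmax or 10 microM.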
# [1] = second compound 0.00316 µM, first compound 0.0316 µM
# [2] = second compound 0.00316 µM, first compound 0.1 µM
# [3] = second compound 0.01 µM, first compound 0.0316 µM
# [4] = second compound 0.01 µM, first compound 0.1 µM
# [5] = second compound 0.0316 µM, first compound 0.0316 µM
# [6] = second compound 0.0316 µM, first compound 0.1 µM
# [7] = second compound 0.1 µM, first compound 0.0316 µM
# [8] = second compound 0.1 µM, first compound 0.1 µM
# [9] = second compound 0.316 µM, first compound 0.0316 µM
# [10] = second compound 0.316 µM, first compound 0.1 µM
# [11] = second compound 1 µM, first compound 0.0316 µM
# [12] = second compound 1 µM, first compound 0.1 µM
# 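Also: spheroids exposed to compounds for seven days before readout.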
compound,measurement,setting,value
CC(=O)c1c(C)c2cnc(Nc3ccc(N4CCNCC4)cn3)nc2n(C2CCCC2)c1=O + COc1c(OCCCN2CCOCC2)ccc2c3n(c(=NC(=O)c4cnc(N)nc4)nc12)CCN3,IC50,second compound 0.00316 µM,> 100 nM
same,IC50,second compound 0.01 µM,> 100 nM
same,IC50,second compound 0.0316 µM,> 100 nM
same,IC50,second compound 0.1 µM,> 100 nM
same,IC50,second compound 0.316 µM,< 0.316 nM
same,IC50,second compound 1 µM,< 0.316 nM
same,"viability, T/C","second compound 0.00316 µM, first compound 0.000316 µM",103%
same,"viability, T/C","second compound 0.00316 µM, first compound 0.001 µM",101%
same,"viability, T/C","second compound 0.00316 µM, first compound 0.00316 µM",97.2%
same,"viability, T/C","second compound 0.00316 µM, first compound 0.01 µM",98.2%
same,"viability, T/C",[1],108%
same,"viability, T/C",[2],62.8%
same,"viability, T/C","second compound 0.01 µM, first compound 0.000316 µM",82.9%
same,"viability, T/C","second compound 0.01 µM, first compound 0.001 µM",67.7%
same,"viability, T/C","second compound 0.01 µM, first compound 0.00316 µM",90.8%
same,"viability, T/C","second compound 0.01 µM, first compound 0.01 µM",79.1%
same,"viability, T/C",[3],83.3%
same,"viability, T/C",[4],69.9%
same,"viability, T/C","second compound 0.0316 µM, first compound 0.000316 µM",75.7%
same,"viability, T/C","second compound 0.0316 µM, first compound 0.001 µM",94.8%
same,"viability, T/C","second compound 0.0316 µM, first compound 0.00316 µM",75.5%
same,"viability, T/C","second compound 0.0316 µM, first compound 0.01 µM",56.7%
same,"viability, T/C",[5],67.3%
same,"viability, T/C",[6],56.3%
same,"viability, T/C","second compound 0.1 µM, first compound 0.000316 µM",64.9%
same,"viability, T/C","second compound 0.1 µM, first compound 0.001 µM",61.8%
same,"viability, T/C","second compound 0.1 µM, first compound 0.00316 µM",51.5%
same,"viability, T/C","second compound 0.1 µM, first compound 0.01 µM",70.2%
same,"viability, T/C",[7],62.7%
same,"viability, T/C",[8],50.7%
same,"viability, T/C","second compound 0.316 µM, first compound 0.000316 µM",37.2%
same,"viability, T/C","second compound 0.316 µM, first compound 0.001 µM",42.5%
same,"viability, T/C","second compound 0.316 µM, first compound 0.00316 µM",49.1%
same,"viability, T/C","second compound 0.316 µM, first compound 0.01 µM",42.9%
same,"viability, T/C",[9],35%
same,"viability, T/C",[10],26.6%
same,"viability, T/C","second compound 1 µM, first compound 0.000316 µM",17.8%
same,"viability, T/C","second compound 1 µM, first compound 0.001 µM",20.3%
same,"viability, T/C","second compound 1 µM, first compound 0.00316 µM",18%
same,"viability, T/C","second compound 1 µM, first compound 0.01 µM",20.3%
same,"viability, T/C",[11],22.3%
same,"viability, T/C",[12],17.2%
CNC(=O)c1ccc(N2C(=S)N(c3ccc(C#N)c(C(F)(F)F)c3)C(=O)C2(C)C)cc1F + COc1c(OCCCN2CCOCC2)ccc2c3n(c(=NC(=O)c4cnc(N)nc4)nc12)CCN3,IC50,second compound 0.00316 µM,> 10000 nM
same,IC50,second compound 0.01 µM,> 10000 nM
same,IC50,second compound 0.0316 µM,> 10000 nM
same,IC50,second compound 0.1 µM,4270 nM
same,IC50,second compound 0.316 µM,< 31.6 nM
same,IC50,second compound 1 µM,< 31.6 nM
same,"viability, T/C",[1],95.2%
same,"viability, T/C",[2],97.8%
same,"viability, T/C","second compound 0.00316 µM, first compound 0.316 µM",91.4%
same,"viability, T/C","second compound 0.00316 µM, first compound 1 µM",96.5%
same,"viability, T/C","second compound 0.00316 µM, first compound 3.16 µM",109%
same,"viability, T/C","second compound 0.00316 µM, first compound 10 µM",82.1%
same,"viability, T/C",[3],81.9%
same,"viability, T/C",[4],88.9%
same,"viability, T/C","second compound 0.01 µM, first compound 0.316 µM",90.1%
same,"viability, T/C","second compound 0.01 µM, first compound 1 µM",82.7%
same,"viability, T/C","second compound 0.01 µM, first compound 3.16 µM",105%
same,"viability, T/C","second compound 0.01 µM, first compound 10 µM",92%
same,"viability, T/C",[5],68.5%
same,"viability, T/C",[6],74.7%
same,"viability, T/C","second compound 0.0316 µM, first compound 0.316 µM",74.7%
same,"viability, T/C","second compound 0.0316 µM, first compound 1 µM",68.2%
same,"viability, T/C","second compound 0.0316 µM, first compound 3.16 µM",92.7%
same,"viability, T/C","second compound 0.0316 µM, first compound 10 µM",67.8%
same,"viability, T/C",[7],54.9%
same,"viability, T/C",[8],61.4%
same,"viability, T/C","second compound 0.1 µM, first compound 0.316 µM",56.2%
same,"viability, T/C","second compound 0.1 µM, first compound 1 µM",59.7%
same,"viability, T/C","second compound 0.1 µM, first compound 3.16 µM",50.5%
same,"viability, T/C","second compound 0.1 µM, first compound 10 µM",42.8%
same,"viability, T/C",[9],40.9%
same,"viability, T/C",[10],47.6%
same,"viability, T/C","second compound 0.316 µM, first compound 0.316 µM",38.8%
same,"viability, T/C","second compound 0.316 µM, first compound 1 µM",33.2%
same,"viability, T/C","second compound 0.316 µM, first compound 3.16 µM",31.5%
same,"viability, T/C","second compound 0.316 µM, first compound 10 µM",22.7%
same,"viability, T/C",[11],19.5%
same,"viability, T/C",[12],20.9%
same,"viability, T/C","second compound 1 µM, first compound 0.316 µM",17.4%
same,"viability, T/C","second compound 1 µM, first compound 1 µM",18.3%
same,"viability, T/C","second compound 1 µM, first compound 3.16 µM",16%
same,"viability, T/C","second compound 1 µM, first compound 10 µM",9.91%

# From PubChem BioAssay AID1963963 (Molecular Pharmacology Branch, DTP, NCI, 2024)
